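Tested at 5 concentrations; 48 h exposure; 96-well plates; endpoints linearly interpolated, else capped at highest concentration. Definition used: TGI = concentration required for complete inhibition of growth.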
What was measured:
Assay in all cases: growth of human tumour cells (NCI), 48 h
[1] = system: 786-0 renal
[2] = system: A498 renal
[3] = system: A549 NSCLC
[4] = system: ACHN renal
[5] = system: CAKI-1 renal
[6] = system: CCRF-CEM leukemia
[7] = system: COLO 205 colon
[8] = system: DMS 114 small cell lung
[9] = system: DMS 273 small cell lung
[10] = system: EKVX NSCLC
[11] = system: HCC-2998 colon
[12] = system: HCT-116 colon
[13] = system: HCT-15 colon
[14] = system: HL-60(TB) leukemia
[15] = system: HOP-18 NSCLC
[16] = system: HOP-62 NSCLC
[17] = system: HT29 colon
[18] = system: IGROV1 ovarian
[19] = system: K-562 leukemia
[20] = system: KM12 colon
[21] = system: KM20L2 colon
[22] = system: LOX IMVI melanoma
[23] = system: LXFL 529 NSCLC
[24] = system: M14 melanoma
[25] = system: M19-MEL melanoma
[26] = system: MALME-3M melanoma
[27] = system: MOLT-4 leukemia
[28] = system: NCI-H226 lung
[29] = system: NCI-H23 lung
[30] = system: NCI-H460 lung
[31] = system: NCI-H522 lung
[32] = system: OVCAR-3 ovarian
[33] = system: OVCAR-4 ovarian
[34] = system: OVCAR-5 ovarian
[35] = system: OVCAR-8 ovarian
[36] = system: RXF 393 renal
[37] = system: RXF-631 renal
[38] = system: SF-268 CNS
[39] = system: SF-295 CNS
[40] = system: SK-MEL-2 melanoma
[41] = system: SK-MEL-28 melanoma
[42] = system: SK-MEL-5 melanoma
[43] = system: SK-OV-3 ovarian
[44] = system: SN12C renal
[45] = system: SNB-19 CNS
[46] = system: SNB-75 CNS
[47] = system: SR leukemia
[48] = system: SW-620 colon
[49] = system: TK-10 renal
[50] = system: U251 CNS
[51] = system: UACC-257 melanoma
[52] = system: UACC-62 melanoma
[53] = system: UO-31 renal

Question: How did the TGI [1] turn out when `COc1ccc2cccc(C(=N)c3ccc(C)c4c3CCC4)c2c1` was run?
Answer: 21.9 µM

Question: What about the TGI [2] of the same compound?
Answer: 5.87 µM

Question: And the TGI [3]?
Answer: 26.8 µM

Question: What about the TGI [4] of the same compound?
Answer: 21.7 µM

Question: And the TGI [5]?
Answer: 16.1 µM

Question: What about the TGI [6] of the same compound?
Answer: 26.6 µM

Question: What about the TGI [7] of the same compound?
Answer: 25.9 µM

Question: And the TGI [8]?
Answer: 19.9 µM

Question: What about the TGI [9] of the same compound?
Answer: 21.2 µM

Question: What about the TGI [10] of the same compound?
Answer: 30.1 µM

Question: And the TGI [11]?
Answer: 23.1 µM

Question: What about the TGI [12] of the same compound?
Answer: 15.9 µM

Question: And the TGI [13]?
Answer: 20.6 µM

Question: What about the TGI [14] of the same compound?
Answer: 9.12 µM

Question: What about the TGI [15] of the same compound?
Answer: 15.5 µM

Question: What about the TGI [16] of the same compound?
Answer: 20 µM

Question: What about the TGI [17] of the same compound?
Answer: 15 µM

Question: And the TGI [18]?
Answer: 19.2 µM

Question: What about the TGI [19] of the same compound?
Answer: 10.8 µM

Question: What about the TGI [20] of the same compound?
Answer: 22.9 µM

Question: And the TGI [21]?
Answer: 19.3 µM

Question: And the TGI [22]?
Answer: 25.5 µM

Question: What about the TGI [23] of the same compound?
Answer: 16.5 µM

Question: And the TGI [24]?
Answer: 18.6 µM

Question: And the TGI [25]?
Answer: 21.5 µM

Question: And the TGI [26]?
Answer: 18.1 µM

Question: What about the TGI [27] of the same compound?
Answer: 26.1 µM

Question: And the TGI [28]?
Answer: 26.9 µM

Question: What about the TGI [29] of the same compound?
Answer: 19.6 µM

Question: And the TGI [30]?
Answer: 16.7 µM

Question: What about the TGI [31] of the same compound?
Answer: 10.1 µM

Question: And the TGI [32]?
Answer: 17.6 µM

Question: What about the TGI [33] of the same compound?
Answer: 24.9 µM

Question: What about the TGI [34] of the same compound?
Answer: 18.9 µM

Question: And the TGI [35]?
Answer: 24 µM

Question: And the TGI [36]?
Answer: 26.3 µM

Question: And the TGI [37]?
Answer: 4.37 µM

Question: What about the TGI [38] of the same compound?
Answer: 31.8 µM

Question: What about the TGI [39] of the same compound?
Answer: 17.7 µM

Question: What about the TGI [40] of the same compound?
Answer: 24.4 µM

Question: And the TGI [41]?
Answer: 26.9 µM

Question: And the TGI [42]?
Answer: 14.8 µM

Question: And the TGI [43]?
Answer: 29.9 µM

Question: What about the TGI [44] of the same compound?
Answer: 24.5 µM

Question: And the TGI [45]?
Answer: 23.3 µM

Question: What about the TGI [46] of the same compound?
Answer: 27.2 µM

Question: What about the TGI [47] of the same compound?
Answer: 9.03 µM

Question: And the TGI [48]?
Answer: 18.7 µM

Question: What about the TGI [49] of the same compound?
Answer: 24.2 µM

Question: And the TGI [50]?
Answer: 21.4 µM

Question: What about the TGI [51] of the same compound?
Answer: 18.2 µM

Question: What about the TGI [52] of the same compound?
Answer: 15.8 µM

Question: What about the TGI [53] of the same compound?
Answer: 16.2 µM

Reference: PubChem BioAssay (NCI)
